# From PMC10587737, “Dracorhodin targeting CMPK2 attenuates inflammation: A novel approach to sepsis therapy” (Clinical and Translational Medicine, 2023)
# Where a chain is given by its changes, count along the chain named.
# How the values were obtained:
# [1] = tested on: LPS-induced septic shock in C57BL/6 mice; assay: LPS-induced septic shock model; assay type: in vivo, mouse
# Method: Sepsis was induced by intraperitoneal injection of 8- to 12-week-old gender-matched wild-type mice with LPS (E. coli O111:B4, Sigma-Aldrich) at 20 mg per kg body weight. Mouse survival was monitored every 1 h after injection for a total of 72 h. In a separate experiment, mice were treated with the same dose of LPS, and immune sera were collected 6 h post injection. Then, the abdominal cavity was washed with PBS. The levels of IL-1β and TNF-α in serum and peritoneal lavage ﬂuid were determined by ELISA. Then, the livers, kidneys and lungs were immediately removed and washed in ice-cold PBS. They were fixed with 4% paraformaldehyde, which was used for hematoxylin-eosin (H&E), Masson staining and Sirius red staining.
# [2] = target: T1, CMPK2 (Homo sapiens, UniProt Q5EBM0); assay: Ultrafiltration-affinity mass spectrometry screening (FC, CMPK2 vs BSA); assay type: binding; design: the N‐terminus was truncated by 22 amino acids; 6xHis (C); made in house; host or cells: FreeStyle 293-F cells (pTT5 vector)
# T1 sequence (Q5EBM0 22-449): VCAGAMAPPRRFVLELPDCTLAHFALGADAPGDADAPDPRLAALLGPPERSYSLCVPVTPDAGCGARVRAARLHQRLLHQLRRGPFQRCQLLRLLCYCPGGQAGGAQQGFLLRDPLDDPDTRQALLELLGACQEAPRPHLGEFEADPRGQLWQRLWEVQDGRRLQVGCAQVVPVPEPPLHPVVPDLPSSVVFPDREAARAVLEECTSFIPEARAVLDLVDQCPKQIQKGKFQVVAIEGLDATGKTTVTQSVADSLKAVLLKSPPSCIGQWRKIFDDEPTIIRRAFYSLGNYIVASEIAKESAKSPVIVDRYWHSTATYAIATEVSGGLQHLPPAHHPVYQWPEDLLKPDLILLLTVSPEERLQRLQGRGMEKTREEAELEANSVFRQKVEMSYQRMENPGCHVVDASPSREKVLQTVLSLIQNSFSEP
# Method: The purified kinase CMPK2 was incubated with the six cocktails for 30 min at 37°C in a suitable buffer solution. In the compound cocktail, each compound concentration was 1 μM, and the concentration of the kinase CMPK2 was set at 5 μM. Each of the above incubation solutions was added to a 0.5 mL 10 kDa ultrafiltration tube (Amicon μltra‐0.5 10K Centrifugal Filter Devices, Millipore), and four experimental replicates were conducted for each CMPK2 and BSA pair. The 10 kDa ultrafiltration tube was centrifuged with the incubation solution at 13 000 × g for 20 min at 4°C. Centrifugation was stopped when the solution volume was approximately 100 μL, and then the mixture was washed five times with cold ammonium acetate (150 mM, pH 7.5). For affinity selection, 100 μL of the mixture was transferred after centrifugation and rinsed into a new eppendorf tube. […] The protein precipitate was discarded and the liquid was concentrated with a N2 stream. The residue was re‐dissolved in 50% methanol before injection. BSA samples were processed in a manner parallel to that of CMPK2 samples.
# Sample measurement was detected by using an UHPLC instrument (Shimadzu) combined with a Triple TOF 5600^+ MS (SCIEX). Chromatographic separation was conducted with an Acquity UPLC BEH C18 column (1.7 μm, 2.1 × 100 mm, Waters) at a temperature maintained at 40°C and a flow rate of 0.3 mL/min, with mobile phases of water–0.1% formic acid (A) and acetonitrile (B). The linear gradient elution profile was as follows: 0−2 min, 5% B; 2−12 min, 5−30% B; 12−25 min, 30−90% B; 25−30 min, 90% B; and re‐equilibration for 5 min. Subsequently, the gradient was recovered to the initial conditions at the final 1 min. Whether it was a test sample or a quality control (QC) sample, each injection volume was 5 μL.
# Briefly, the chromatographic peaks of each bound ligand were extracted using PeakView with identification criteria of precise mass measurement deviation and retention time tolerance of 5 ppm and 0.1 min, respectively. The MS response of each ligand was represented with the integrated peak area extracted by the corresponding extract ion chromatogram. The effective hits were selected on the basis of fold change (FC) value ≥ 2, p value < .05 and cyclic voltammetry (CV) ≤ 30% and were identified as candidate ligands of CMPK2. By extracting the m/z of individual standards from the acquired MS/MS spectrum, the decimal point of RT was used to distinguish the ambiguous compound peaks in the cocktails.
# The experimental samples were injected into a UHPLC‐Q‐TOF‐MS system. First, total ion chromatograms (TIC) reflected the general overview of all samples (Supporting Information Figure S2A). […] Among the groups, each sample with a CV more than 30% was considered an abnormal sample and was not considered in the subsequent statistical analysis. In addition, the p value of each sample between the groups was calculated by MetaboAnalyst 5.0, and the significance of differences was determined. In the ultrafiltration‐affinity mass spectrometry profiling, we calculated FC, which is defined as the ratio of the MS response between the compound detected in the CMPK2 and BSA incubation system (Supporting Information Figure S2C,D). […] To select small‐molecule ligands with strong affinity, we determined the screening criteria to be FC ≥ 2. Affinity MS analysis generated a set of raw data, and the compounds that met the pre‐judgment criteria (FC ≥ 2, p < .05) were selected as compound hits (Supporting Information Figure S2).
# [3] = target: T2, CMPK2^Lys265 protein (Homo sapiens, UniProt Q5EBM0, K265A); assay: MST binding to CMPK2 Lys265 mutant; details: Lys265 mutated
# T2 construct: the N‐terminus was truncated by 22 amino acids; 6xHis (C); made in house; host or cells: FreeStyle 293-F cells (pTT5 vector)
# T2 sequence (Q5EBM0 22-449 K265A): T1 sequence (Q5EBM0 22-449) with K244A
# Method: Human CMPK2 and K265, K282 and K320 mutated CMPK2 cDNA were cloned and inserted into the pTT5 vector, and the constructed plasmid was amplified by the DH5α strain. The C‐terminus of the cDNA was fused with a 6× His tag, and the N‐terminus was truncated by 22 amino acids (Figure 1B–F and Supporting Information Figure S5A,B). When the free‐style 293‐F cells reached the proper density, approximately 1 mg of expression plasmid was premixed with 3 mg polyethylenimine in UltraFectin medium and incubated prior to transfection. This mixture was then added to the appropriate amount of fresh cell culture medium, incubated for 30 min and collected after 48 h.
# The MST assay is an emerging technique used to quantitatively elucidate binding. The binding parameter between CMPK2 and DP was measured using MST on a Monolith NT.115 system (Germany). CMPK2 was fluorescently labeled with the Monolith NT Protein Labeling Kit RED (L018, NanoTemper Technologies GmbH, Munich, Germany) according to the manufacturer’s instructions. The Monolith NT.115 system was used with Monolith NT.115 standard capillaries (M0-K022). MST assay buffer was used to dilute the labeled CMPK2 to 2 μM. […] The binding and dissociation constants (Kd) were evaluated and calculated using M0-Affinity analysis software version 2.1.3 (Nano Temper Technologies) for the ligand.
# [4] = tested on: NLRP3 inflammasome in BMDMs; assay: NLRP3 inflammasome activation in LPS-primed BMDMs (ATP/Nigericin; ELISA, immunoblot); assay type: cell-based, mouse; details: DP 2.5, 5, 10 μM, supernatant
# Method: Mouse bone marrow cells (isolated from the legs of mice) were cultured in DMEM supplemented with 20% FBS. BMDMs were generated by culturing mouse bone marrow cells in the presence of 20 ng/ml M-CSF-conditioned medium for 7 days. BMDMs were seeded in 6- or 48-well plates overnight in FBS-free DMEM. On day 2, after priming with ultrapure LPS (200 ng/ml) for 4 h, BMDMs (1 × 10^6 cells/ml) were further stimulated with ATP (4 mM) or nigericin (10 μM) for 45 min. Supernatants and cell lysates were collected for ELISA and immunoblot analyses.
# The cytokines mouse IL-1β and TNF-α in supernatants from serum, cell culture, and tissue culture were assayed by ELISA kits (R&D Systems, Minneapolis, MN, USA) according to the manufacturer’s instructions.
# Cells were lysed in NP-40 buffer containing a protease inhibitor cocktail (Roche, 11836153001) and a phosphatase inhibitor cocktail (Sigma-Aldrich, P5726). Protein concentrations were quantified using a BCA Protein Assay Kit (Beyotime, 5000T P0011). Equal amounts of protein were separated by SDS-PAGE and transferred onto nitrocellulose membranes. The membranes were then incubated with antibodies against CMPK2, NLRP3, ASC, pro-caspase-1, pro-IL-1β, GAPDH, caspase-1 and IL-1β, followed by incubation with the appropriate secondary HRP-conjugated antibodies and development with ECL.
# [5] = myeloid tissue, western blot, DP 40 mg/kg
# [6] = serum and peritoneal lavage fluid, DP 2 h pre-treatment, 6 h LPS
smiles,measurement,setting,value
"COc1c2ccc(-c3ccccc3)oc-2cc(=O)c1C [compound 73, Dracohodin perochlorate]",blood pressure (hypotension),[1]; BIOPAC System-MP160,could improve hypotension
same,heart rate,[1]; BIOPAC System-MP160,no significant difference
same,blood pressure changes,[1]; BP-2010A instrument,not captured significant differences
same,survival rate,[1]; DP 40 mg/kg given before or after sepsis outbreak,significantly improved
same,survival (lethal inflammation),"[1]; DP 10, 20, 40 mg/kg 2 h before LPS 20 mg/kg i.p., 72 h",suppressed the lethal inflammation
same,LPS-induced inflammatory infiltration and fibrosis,"[1]; liver, lung, kidney histopathology, DP 10, 20, 40 mg/kg",distinctly alleviated
same,"body weight, body temperature and heart rate",[1]; model group vs drug administration groups,no significant difference
same,CMPK2 expression in vivo,[1]; [5],markedly blocked
same,activated caspase-1,[1]; [5],prevents the increase
same,IL-1β production,[1]; [6],reduced
same,TNF-α production,[1]; [6],did not affect
same,binding between dUMP and CMPK2,"[2]; affinity mass spectrometry competition, Figure S3C",interfered
same,FC Negative,"[2]; negative ion mode, ratio of MS response CMPK2 vs BSA",3.00
same,FC Positive,"[2]; positive ion mode, ratio of MS response CMPK2 vs BSA",4.32
same,binding (Kd by MST),[3],no binding
same,lysis of p20 (caspase-1),[4]; 12 h before or 1 h after LPS,inhibited
same,secretion of p17 (IL-1β),[4]; 12 h before or 1 h after LPS,inhibited
same,production of TNF-α,[4],had no effect
